Blank lines part the entries; values can stand above or below the molecule they belong to.
Experiments:
[1] = Food intake study with free-hand ICV injection; type: in vivo, male C57BL/6 mice; conditions: 3 μg per mouse ICV
[2] = Pharmacokinetic measurement by mass spectrometry in mice; type: in vivo, C57BL/6 mice
[3] = Chronic OXT analog treatment in DIO mice; type: in vivo, C57BL/6 DIO mice; conditions: vs vehicle
[4] = Rat blood pressure telemetry; type: in vivo, DIO male Long-Evans rats; conditions: IP 0.3, 1, 3 mg/kg, DIO Long-Evans rats
[5] = biological target: T1, human OXTR (Homo sapiens, UniProt P30559); experiment: FLIPR calcium assay, AV12 cells stably expressing human OXTR; type: cell-based; conditions: Fig. 1 and Dryad data [67]; for receptor selectivity against vasopressin receptors (in words): OXTR vs V1a, V1b (FLIPR) and V2 (cAMP); for OXTR activity / potency (in words): in vitro OXTR assay
T1 sequence (P30559 1-389): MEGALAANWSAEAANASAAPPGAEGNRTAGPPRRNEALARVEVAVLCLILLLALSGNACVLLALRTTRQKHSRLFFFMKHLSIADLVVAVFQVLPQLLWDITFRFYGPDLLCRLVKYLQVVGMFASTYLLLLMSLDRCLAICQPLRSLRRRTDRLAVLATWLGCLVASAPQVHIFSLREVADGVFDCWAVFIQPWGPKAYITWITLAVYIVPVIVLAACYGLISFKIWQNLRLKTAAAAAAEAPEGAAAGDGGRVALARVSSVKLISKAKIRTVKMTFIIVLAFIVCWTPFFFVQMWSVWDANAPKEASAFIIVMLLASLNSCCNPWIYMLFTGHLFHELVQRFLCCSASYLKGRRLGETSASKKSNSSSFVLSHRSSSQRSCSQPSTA

[6] = Acute food intake study; type: in vivo, male C57BL/6 mice; conditions: conivaptan 0.5 mg/kg IP coadministered with OXT 2 mg/kg IP, Fig. 3F
[7] = C57BL/6, mouse, plasma, ip, 1 mg/kg

- behavior during first hour after ICV injection (vocalization, grooming) [1]: clinical signs of behavioral distress
- time until plasma level dropped below detection ([2]; 1 mg/kg IP, single dose, Fig. 2A): < 3 h
- Tmax [2, 7]: ~30 min
- half-life [2, 7]: < 30 min
- serum potassium level [3]: significantly lower
Molecule: CC[C@H](C)[C@@H]1NC(=O)[C@H](Cc2ccc(O)cc2)NC(=O)[C@@H](N)CSSC[C@@H](C(=O)N2CCC[C@H]2C(=O)N[C@@H](CC(C)C)C(=O)NCC(N)=O)NC(=O)[C@H](CC(N)=O)NC(=O)[C@H](CCC(N)=O)NC1=O [OXT, oxytocin]
- mean arterial pressure (MAP) [4]: dose-dependently caused a statistically significant increase of MAP

- OXTR activity / potency (in words) [5]: without affecting OXTR activation
Molecule: carbetocin [OXT^Butyryl]
- receptor selectivity against vasopressin receptors (in words) [5]: increased receptor selectivity against vasopressin receptors

- receptor selectivity against vasopressin receptors (in words) [5]: high degree of OXTR selectivity
Molecule: TC OT39
- OXTR activity / potency (in words) [5]: significantly decreased potency (EC50) and efficacy (Emax)

Molecule: Cc1nc2c([nH]1)-c1ccccc1N(C(=O)c1ccc(NC(=O)c3ccccc3-c3ccccc3)cc1)CC2 [conivaptan]
- effect on OXT-induced food intake suppression [6]: abolished OXT’s effect on food intake suppression

Source: PMC6608564 (Journal of the Endocrine Society, 2019)
